Measured values from patent publication US20250302080A1, “SWEETNESS AND/OR FLAVOR ENHANCER” (AJINOMOTO CO., INC., priority 2022, published 2025).

Legend:
[1] = Sensory evaluation of sweetness intensity in RebA solution, four reference samples (Experimental Examples 17-19)
Protocol: A negative control RebA solution (0.073 wt % RebA solution) was prepared by dissolving RebA in filtered water.
(§1) A sensory evaluation of sweetness intensity was performed for each sample by a panel of four experts according to the following evaluation criteria.
Sweetness intensity was evaluated by 0.0 to 10.0 points based on the following reference samples (negative control (hereinafter referred to as NC) (0.0 point); reference 1 (hereinafter referred to as R1) (3.2 points), reference 2 (hereinafter referred to as R2) (5.0 points); reference 3 (hereinafter referred to as R3) (10.0 points)). The average score (rounded to two decimal places) of each expert panelist was calculated. An average score of 3.0 points or more was considered to be functional. • NC (0.0 point): 0.073 wt % RebA solution (solvent: filtered water) • R1 (3.2 points): 0.073 wt % RebA solution (solvent: filtered water)+decanoic acid (10 ppb) • R2 (5.0 points): 0.077 wt % RebA solution (solvent: filtered water) • R3 (10.0 points): 0.080 wt % RebA solution (solvent: filtered water)
A sensory evaluation of sweetness intensity was performed for each sample by a panel of four experts according to the same evaluation criteria as in Experimental Example 17.

[2] = Sensory evaluation of sweetness intensity in sucrose solution (Experimental Examples 25-27)
Protocol: A negative control sucrose solution (0.7 wt % sucrose solution) was prepared by dissolving sucrose in filtered water.
as §1
Sweetness intensity was evaluated by 0.0 to 10.0 points based on the following reference samples (negative control (hereinafter referred to as NC) (0.0 point); reference 1 (hereinafter referred to as R1) (3.0 points), reference 2 (hereinafter referred to as R2) (5.0 points); reference 3 (hereinafter referred to as R3) (10.0 points)). The average score (rounded to two decimal places) of each expert panelist was calculated. An average score of 3.0 points or more was considered to be functional. • NC (0.0 point): 7.0 wt % sucrose solution (solvent: filtered water) • R1 (3.0 points): 7.3 wt % sucrose solution (solvent: filtered water) • R2 (5.0 points): 7.5 wt % sucrose solution (solvent: filtered water) • R3 (10.0 points): 8.0 wt % sucrose solution (solvent: filtered water)
A sensory evaluation of sweetness intensity was performed for each sample by a panel of four experts according to the same evaluation criteria as in Experimental Example 25.

[3] = added alone, 3.0 points or more

## O=C1C[C@@H](c2ccc(O)cc2)Oc2cc(O)cc(O)c21 [naringenin]
[1]; [3]
  concentration at which a sweetness-enhancing effect was confirmed: ≥ 10 ppm
[1]; naringenin alone at 1 ppm
  sweetness intensity: 1.8 points
[1]; naringenin alone at 5 ppm
  sweetness intensity: 2.5 points
[1]; naringenin alone at 10 ppm
  sweetness intensity: 3.3 points
[1]; naringenin alone at 15 ppm
  sweetness intensity: 4.1 points
[1]; naringenin alone at 30 ppm
  sweetness intensity: 5.0 points
[1]; naringenin alone at 50 ppm
  sweetness intensity: 5.4 points
[2]; [3]
  concentration at which a sweetness-enhancing effect was confirmed: ≥ 15 ppm
[2]; naringenin alone at 1 ppm
  sweetness intensity: 1.1 points
[2]; naringenin alone at 5 ppm
  sweetness intensity: 1.7 points
[2]; naringenin alone at 10 ppm
  sweetness intensity: 2.6 points
[2]; naringenin alone at 15 ppm
  sweetness intensity: 3.6 points
[2]; naringenin alone at 30 ppm
  sweetness intensity: 4.6 points
[2]; naringenin alone at 50 ppm
  sweetness intensity: 5.8 points
